Reference: ChEMBL document CHEMBL4004821, “Design and synthesis of novel tetrandrine derivatives as potential anti-tumor agents against human hepatocellular carcinoma” (Eur J Med Chem, 2017)

Assays:
PLC-PRF-5 = assay: Cytotoxicity against human PLC/PRF/5 cells assessed as growth inhibition after 24 hrs by MTT assay; type: functional, cell-based; settings: PLC-PRF-5, 24 h
[1] = Cytotoxicity against human MHCC97L cells assessed as growth inhibition after 24 hrs by MTT assay; type: functional, cell-based

Row | Compound | IC50 (PLC-PRF-5) [µM] | IC50 [1] [µM]
1 | COc1cc(NC(=O)c2cccc(Cl)c2)c2cc1Oc1ccc(cc1)C[C@H]1c3cc(c(OC)cc3CCN1C)Oc1c(OC)c(OC)cc3c1[C@H](C2)N(C)CC3 | 7.63 | 3.67
2 | COc1cc(NC(=O)c2cccs2)c2cc1Oc1ccc(cc1)C[C@H]1c3cc(c(OC)cc3CCN1C)Oc1c(OC)c(OC)cc3c1[C@H](C2)N(C)CC3 | 9.01 | 11.9
3 | COc1cc(NC(=O)c2cccc3ccccc23)c2cc1Oc1ccc(cc1)C[C@H]1c3cc(c(OC)cc3CCN1C)Oc1c(OC)c(OC)cc3c1[C@H](C2)N(C)CC3 | 5.56 | 5.63
4 | COc1cc(NC(=O)c2ccc([N+](=O)[O-])o2)c2cc1Oc1ccc(cc1)C[C@H]1c3cc(c(OC)cc3CCN1C)Oc1c(OC)c(OC)cc3c1[C@H](C2)N(C)CC3 | 2.5 | 2.11
5 | CCCCCC(=O)Nc1cc(OC)c2cc1C[C@H]1c3c(cc(OC)c(OC)c3Oc3cc4c(cc3OC)CCN(C)[C@H]4Cc3ccc(cc3)O2)CCN1C | 10.3 | 12.6
6 | COc1cc(NC(=O)C2CC2)c2cc1Oc1ccc(cc1)C[C@H]1c3cc(c(OC)cc3CCN1C)Oc1c(OC)c(OC)cc3c1[C@H](C2)N(C)CC3 | 6.45 | 7.68
7 | COc1cc(NC(=O)c2ccccc2Cl)c2cc1Oc1ccc(cc1)C[C@H]1c3cc(c(OC)cc3CCN1C)Oc1c(OC)c(OC)cc3c1[C@H](C2)N(C)CC3 | 12.1 | 2.81
8 | COc1cc(NC(=O)c2ccc(Cl)cc2)c2cc1Oc1ccc(cc1)C[C@H]1c3cc(c(OC)cc3CCN1C)Oc1c(OC)c(OC)cc3c1[C@H](C2)N(C)CC3 | 11.9 | 10.3
9 | COc1cc(NC(=O)C(C)(C)C)c2cc1Oc1ccc(cc1)C[C@H]1c3cc(c(OC)cc3CCN1C)Oc1c(OC)c(OC)cc3c1[C@H](C2)N(C)CC3 | 5.37 | 6.4
10 | COc1cc(NC(=O)C2CCCO2)c2cc1Oc1ccc(cc1)C[C@H]1c3cc(c(OC)cc3CCN1C)Oc1c(OC)c(OC)cc3c1[C@H](C2)N(C)CC3 (some centres not stated) | 7.32 | 5.66
11 | COc1cc(NC(=O)CCCl)c2cc1Oc1ccc(cc1)C[C@H]1c3cc(c(OC)cc3CCN1C)Oc1c(OC)c(OC)cc3c1[C@H](C2)N(C)CC3 | 6.28 | 9.21
12 | COc1cc(NC(=O)c2ccc(Br)cc2)c2cc1Oc1ccc(cc1)C[C@H]1c3cc(c(OC)cc3CCN1C)Oc1c(OC)c(OC)cc3c1[C@H](C2)N(C)CC3 | 7.76 | 4.4
13 | COc1cc(NC(=O)c2ccccc2)c2cc1Oc1ccc(cc1)C[C@H]1c3cc(c(OC)cc3CCN1C)Oc1c(OC)c(OC)cc3c1[C@H](C2)N(C)CC3 | 9.16 | 7.8
14 | COc1cc(NC(=O)CCBr)c2cc1Oc1ccc(cc1)C[C@H]1c3cc(c(OC)cc3CCN1C)Oc1c(OC)c(OC)cc3c1[C@H](C2)N(C)CC3 | 6.34 | 7.86
15 | COc1cc(NC(=O)CO)c2cc1Oc1ccc(cc1)C[C@H]1c3cc(c(OC)cc3CCN1C)Oc1c(OC)c(OC)cc3c1[C@H](C2)N(C)CC3 | 10.2 | 9.09
16 | COc1cc(NC(=O)c2ccc(Cl)c(Cl)c2)c2cc1Oc1ccc(cc1)C[C@H]1c3cc(c(OC)cc3CCN1C)Oc1c(OC)c(OC)cc3c1[C@H](C2)N(C)CC3 | 6.82 | 3.81
17 | COc1cc(NC(=O)C(Cl)(Cl)Cl)c2cc1Oc1ccc(cc1)C[C@H]1c3cc(c(OC)cc3CCN1C)Oc1c(OC)c(OC)cc3c1[C@H](C2)N(C)CC3 | 3.22 | 4.26
18 | COc1cc(NC(=O)c2c(Cl)cc(Cl)cc2Cl)c2cc1Oc1ccc(cc1)C[C@H]1c3cc(c(OC)cc3CCN1C)Oc1c(OC)c(OC)cc3c1[C@H](C2)N(C)CC3 | 6.54 | 4.12

Row | Compound | IC50 (PLC-PRF-5) [µM] | IC50 [1] [µM]
19 | COc1cc(NC(=O)C2CC=CC2)c2cc1Oc1ccc(cc1)C[C@H]1c3cc(c(OC)cc3CCN1C)Oc1c(OC)c(OC)cc3c1[C@H](C2)N(C)CC3 | 6.42 | 5.76
20 | COc1cc(NC(=O)CCCCl)c2cc1Oc1ccc(cc1)C[C@H]1c3cc(c(OC)cc3CCN1C)Oc1c(OC)c(OC)cc3c1[C@H](C2)N(C)CC3 | 7.22 | 9.76
21 | COc1cc(NC(=O)c2ccoc2)c2cc1Oc1ccc(cc1)C[C@H]1c3cc(c(OC)cc3CCN1C)Oc1c(OC)c(OC)cc3c1[C@H](C2)N(C)CC3 | 1.89 | 3.22
22 | COc1cc(NC(=O)C=C(C)C)c2cc1Oc1ccc(cc1)C[C@H]1c3cc(c(OC)cc3CCN1C)Oc1c(OC)c(OC)cc3c1[C@H](C2)N(C)CC3 | 7.63 | 6.31
23 | C=CC(=O)Nc1cc(OC)c2cc1C[C@H]1c3c(cc(OC)c(OC)c3Oc3cc4c(cc3OC)CCN(C)[C@H]4Cc3ccc(cc3)O2)CCN1C | 10.7 | 10.4
24 | COc1cc(NC(=O)c2ccc(C(F)(F)F)cc2)c2cc1Oc1ccc(cc1)C[C@H]1c3cc(c(OC)cc3CCN1C)Oc1c(OC)c(OC)cc3c1[C@H](C2)N(C)CC3 | 9.49 | 8.41
25 | COc1cc(NC(=O)c2cc[nH]n2)c2cc1Oc1ccc(cc1)C[C@H]1c3cc(c(OC)cc3CCN1C)Oc1c(OC)c(OC)cc3c1[C@H](C2)N(C)CC3 | 2.24 | 4.17
26 | COC(=O)C(=O)Nc1cc(OC)c2cc1C[C@H]1c3c(cc(OC)c(OC)c3Oc3cc4c(cc3OC)CCN(C)[C@H]4Cc3ccc(cc3)O2)CCN1C | 3.72 | 2.46
27 | COc1cc(NC(=O)c2ccc(Cl)cc2Cl)c2cc1Oc1ccc(cc1)C[C@H]1c3cc(c(OC)cc3CCN1C)Oc1c(OC)c(OC)cc3c1[C@H](C2)N(C)CC3 | 8.24 | 1.7
28 | COc1cc(NC(=O)/C=C/c2ccccc2)c2cc1Oc1ccc(cc1)C[C@H]1c3cc(c(OC)cc3CCN1C)Oc1c(OC)c(OC)cc3c1[C@H](C2)N(C)CC3 | 9.81 | 7.7
29 | COc1ccc2cc1Oc1ccc(cc1)C[C@H]1c3cc(c(OC)cc3CCN1C)Oc1c(OC)c(OC)cc3c1[C@H](C2)N(C)CC3 [FANCHININ] | 18.5 | 15
30 | COc1cc(NC(=O)COC(C)=O)c2cc1Oc1ccc(cc1)C[C@H]1c3cc(c(OC)cc3CCN1C)Oc1c(OC)c(OC)cc3c1[C@H](C2)N(C)CC3 | 10.2 | 8.41
31 | COc1cc(NC(=O)C(F)(F)F)c2cc1Oc1ccc(cc1)C[C@H]1c3cc(c(OC)cc3CCN1C)Oc1c(OC)c(OC)cc3c1[C@H](C2)N(C)CC3 | 2.24 | 2.41
32 | COc1cc(NC(=O)OCC(C)C)c2cc1Oc1ccc(cc1)C[C@H]1c3cc(c(OC)cc3CCN1C)Oc1c(OC)c(OC)cc3c1[C@H](C2)N(C)CC3 | 4.66 | 1.4
33 | COc1ccc(C(=O)Nc2cc(OC)c3cc2C[C@H]2c4c(cc(OC)c(OC)c4Oc4cc5c(cc4OC)CCN(C)[C@H]5Cc4ccc(cc4)O3)CCN2C)cc1 | 5.32 | 12
34 | C=CCCCCCCCCC(=O)Nc1cc(OC)c2cc1C[C@H]1c3c(cc(OC)c(OC)c3Oc3cc4c(cc3OC)CCN(C)[C@H]4Cc3ccc(cc3)O2)CCN1C | 11.3 | 10.8
35 | COc1cc(NC(C)=O)c2cc1Oc1ccc(cc1)C[C@H]1c3cc(c(OC)cc3CCN1C)Oc1c(OC)c(OC)cc3c1[C@H](C2)N(C)CC3 | 12.3 | 12.2
36 | CNC(=O)c1cc(Oc2ccc(NC(=O)Nc3ccc(Cl)c(C(F)(F)F)c3)cc2)ccn1 [SORAFENIB] | 29.9 | 34.4
